Results on 8 compounds are retold here after patent publication US4178442A, “Novel cinnamoyles piperazines and homopiperazines, the method of preparing them and their application in therapeutics” (Delalande S. A., priority 1977, dated 1979).

In general, LD50 refers to the dose expected to kill half of the subjects tested. For orientation: mortality means the percentage killed.

Where two headings read alike, the source gives them in different places.

In data set [1] the test system is anaesthetized dog. Nature of the data set: Activity on the peripheral circulation, anaesthetized dog. It is filed as in vivo. To be noted: for change in vivo at 5 mg/kg / change in vivo at 2.5 mg/kg: Canis lupus familiaris, iv. As for the experimental part:
The activity on the peripheral circulation was studied on an anaesthetized dog (sodium pentobarbital 30 mg/kg/i.v.). The femoral artery flow was measured by means of an electromagnetic or ultrasonic perivascular Doppler effect probe.

A further data set is described as follows: in vivo. To be noted: iv; for LD50: read-out: Toxicity: LD50. The source says:
*LD50 or percentage of mortality which is given between brackets

For data set [2], the system named is anaesthetized dog. Nature of the data set: Antiangorous activity on anaesthetized dog: consumption of oxygen in the left ventricule and cardiac effort (KATZ's index). It is filed as in vivo. The note with it: for inhibition in vivo at 2.5 mg/kg / inhibition in vivo at 9.1 mg/kg / inhibition in vivo at 2.3 mg/kg: Canis lupus familiaris, iv. In short, it runs like this:
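Dogs anaesthetized with sodium pentobarbital 30 mg/kg i.v.; compounds given by slow i.v. perfusion. Left ventricular O2 consumption = coronary venous flow (Morawitz cannula in coronary sinus) × arteriovenous O2 difference; cardiac effort (Katz index) = mean arterial pressure × heart rate from D2 ECG.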

Data set [3] concerns anaesthetized dog. Briefly: Activity on the cerebral circulation, anaesthetized dog. It is filed as in vivo. To be noted: for change in vivo at 5 mg/kg / change in vivo at 2.5 mg/kg: Canis lupus familiaris, iv; for Increase of the extraction of cerebral oxygen: (A-V)/A. As for the experimental part: The activity on the cerebral circulation was tested on an anaesthetized dog (sodium pentobarbital 30 mg/kg/i.v.). The vertebral artery flow was measured by means of an electromagnetic perivascular or ultrasonic Doppler effect probe. The intracerebral vascular resistance was estimated by the back pressure of the internal carotid artery. […] The increase in the extraction of cerebral oxygen was estimated by the following equation:(A-V)/A in which: A represents the volume of oxygen in the arterial blood (% volume) measured by hemoreflectometry (KIPP and ZONEN's apparatus) and quantity determination of the haemoglobin (DRABKIN's method). V represents the volume of oxygen in the cerebral venous blood (internal maxillary vein). […] It should be noted that the compounds tested were injected intravenously (rapid injection).

[4] abbreviates: dog, 5 mg/kg i.v. slow perfusion, read-out: Average arterial pressure.
Where [5] appears, read: dog, 5 mg/kg i.v. slow perfusion, read-out: Femoral artery flow.
The mark [6] stands for this setting: dog, 5 mg/kg i.v. slow perfusion.
[7] abbreviates: 2.5 mg/kg i.v. slow perfusion, read-out: Diminution in consumption of O2.
Where [8] appears, read: 2.5 mg/kg i.v. slow perfusion, read-out: Diminution in the cardiac effort (IK).
Where [9] appears, read: dog, 5 mg/kg i.v. rapid injection, read-out: Internal carotid artery back pressure.
[10] abbreviates: dog, 5 mg/kg i.v. rapid injection, read-out: Systemic average arterial pressure.
Setting [11] is: dog, 5 mg/kg i.v. rapid injection, read-out: Vertebral artery flow.
[12] abbreviates: dog, 5 mg/kg i.v. rapid injection.
Setting [13] is: dog, 2,5 mg/kg i.v. slow perfusion.
Setting [14] is: dog, 2,5 mg/kg i.v. rapid injection, read-out: Internal carotid artery back pressure.
Setting [15] is: dog, 2,5 mg/kg i.v. rapid injection, read-out: Systemic average arterial pressure.
Where [16] appears, read: dog, 2,5 mg/kg i.v. rapid injection.

In the case of `COc1cc(/C=C/C(=O)N2CCN(CC(O)COc3ccccc3C)CC2)cc(OC)c1OC` (centres unmarked) [760 502], the change in vivo at 5 mg/kg in the data set on anaesthetized dog [1] (setting [4]) is -22%; in the data set on anaesthetized dog [1] (setting [5]), 190%. Moreover, the “Average arterial pressure: in time” value with anaesthetized dog [1] (setting [6]) was found to be 15 min. Also, the “Femoral artery flow: in time” value in the data set with anaesthetized dog [1] (setting [6]) turned out to be 35 min.

As to `COc1cc(/C=C/C(=O)N2CCN(CC(O)COc3cccc(OC)c3OC)CC2)cc(OC)c1OC` (centres unmarked) [760 393], the LD50 in “in vivo” came out at 319 mg/kg. Also, in the data set on anaesthetized dog [2] (2.5 mg/kg i.v. slow perfusion), the “Diminution in consumption of O2: in time” value came to 15 min. In the data set with anaesthetized dog [2] (2.5 mg/kg i.v. slow perfusion), the “Diminution in the cardiac effort (IK): in time” value (from here on “Diminution in the cardiac effort”) is recorded as 15 min. The inhibition in vivo at 2.5 mg/kg came to 47% in the data set with anaesthetized dog [2] (setting [7]) and 5% in the data set with anaesthetized dog [2] (setting [8]). The change in vivo at 5 mg/kg with anaesthetized dog [3] (setting [9]) is -62%; with anaesthetized dog [3] (setting [10]), -33%; in the data set with anaesthetized dog [3] (setting [11]), 150%. The compound also yielded a Systemic average arterial pressure: in time with anaesthetized dog [3] (setting [12]) of 30 min. Further, the “Vertebral artery flow: in time” value in the data set with anaesthetized dog [3] (setting [12]) is recorded as less than 2 min.

Regarding `COc1cc(/C=C/C(=O)N2CCN(CC(O)COc3ccccc3C(C)=O)CC2)cc(OC)c1OC` (centres unmarked) [760 455], the mortality in “in vivo” (255 mg/kg i.v., read-out: Toxicity (Mortality)) came out at 50%. Further, in the data set with anaesthetized dog [2] (2.5 mg/kg i.v. slow perfusion), the “Diminution in consumption of O2: in time” value is on record as 15 min and the “Diminution in the cardiac effort” value turned out to be 30 min. Besides, the inhibition in vivo at 2.5 mg/kg with anaesthetized dog [2] (setting [7]) amounted to 45%. Moreover, in the data set on anaesthetized dog [2] (setting [8]), the inhibition in vivo at 2.5 mg/kg was found to be 24%. Moreover, the change in vivo at 5 mg/kg in the data set on anaesthetized dog [3] (setting [9]) was -90%. The change in vivo at 5 mg/kg in the data set with anaesthetized dog [3] (setting [10]) is -39%. For the same compound, in the data set with anaesthetized dog [3] (setting [11]), the change in vivo at 5 mg/kg stood at 120%. For the same compound, in the data set on anaesthetized dog [3] (setting [12]), the “Internal carotid artery back pressure: in time” value was 20 min, the Systemic average arterial pressure: in time was 30 min and the “Vertebral artery flow: in time” value is listed as 6 min.

For `COc1cccc(OCC(O)CN2CCN(C(=O)/C=C/c3cc(OC)c(OC)c(OC)c3)CC2)c1` (centres unmarked) [760 390], the median lethal dose (LD50) in “in vivo” amounted to 227 mg/kg. In addition, in the data set on anaesthetized dog [2] (9.1 mg/kg i.v. slow perfusion), the “Diminution in consumption of O2: in time” value was 53 min and the “Diminution in the cardiac effort” value is given as 45 min. The inhibition in vivo at 9.1 mg/kg in the data set on anaesthetized dog [2] (9.1 mg/kg i.v. slow perfusion, read-out: Diminution in consumption of O2) came to 64%. In addition, the inhibition in vivo at 9.1 mg/kg in the data set with anaesthetized dog [2] (9.1 mg/kg i.v. slow perfusion, read-out: Diminution in the cardiac effort (IK)) came out at 60%. Further, the change in vivo at 5 mg/kg with anaesthetized dog [3] (setting [9]) is -22%. Further, the change in vivo at 5 mg/kg with anaesthetized dog [3] (setting [10]) was -13%. For the same compound, the change in vivo at 5 mg/kg in the data set on anaesthetized dog [3] (setting [11]) stood at 177%. Besides, in the data set with anaesthetized dog [3] (setting [12]), the “Internal carotid artery back pressure: in time” value is 5 min, the Systemic average arterial pressure: in time was less than 10 min and the “Vertebral artery flow: in time” value turned out to be 30 min.

`CCN(CC)CCOC(=O)C(Cc1cccc2ccccc12)CC1CCCO1` (centres unmarked) [Naphtidrofuryl, naphtidrofuryl, reference compound]: the change in vivo at 2.5 mg/kg was -50% with anaesthetized dog [1] (dog, 2,5 mg/kg i.v. slow perfusion, read-out: Average arterial pressure); 100% in the data set with anaesthetized dog [1] (dog, 2,5 mg/kg i.v. slow perfusion, read-out: Femoral artery flow); -26% in the data set on anaesthetized dog [3] (setting [14]); -50% in the data set with anaesthetized dog [3] (setting [15]); 100% in the data set with anaesthetized dog [3] (dog, 2,5 mg/kg i.v. rapid injection, read-out: Vertebral artery flow). Further, the “Average arterial pressure: in time” value in the data set on anaesthetized dog [1] (setting [13]) is on record as 2 min. In addition, the “Femoral artery flow: in time” value in the data set on anaesthetized dog [1] (setting [13]) was 5 min. In addition, the “Internal carotid artery back pressure: in time” value in the data set with anaesthetized dog [3] (setting [16]) came to 5 min. The compound also gave a Systemic average arterial pressure: in time in the data set with anaesthetized dog [3] (setting [16]) of 2 min. Further, in the data set on anaesthetized dog [3] (setting [16]), the “Vertebral artery flow: in time” value is reported as 5 min. For the same compound, in the data set with anaesthetized dog [3] (setting [16]), the “Increase of the extraction of cerebral oxygen” value is -50%.

Turning to `COc1cc(/C=C/C(=O)N2CCN(CC(O)COc3cccc(C(C)=O)c3)CC2)cc(OC)c1OC` (centres unmarked) [770 458], in “in vivo”, the LD50 stood at 250 mg/kg. In the data set with anaesthetized dog [2] (2.5 mg/kg i.v. slow perfusion), the “Diminution in consumption of O2: in time” value stood at 23 min and the “Diminution in the cardiac effort” value came out at 15 min. For the same compound, in the data set on anaesthetized dog [2] (setting [7]), the inhibition in vivo at 2.5 mg/kg stood at 72%. In the data set on anaesthetized dog [2] (setting [8]), the inhibition in vivo at 2.5 mg/kg is 25%. Also, the change in vivo at 2.5 mg/kg in the data set with anaesthetized dog [3] (setting [14]) is -11%. The change in vivo at 2.5 mg/kg with anaesthetized dog [3] (setting [15]) was -10%. Also, in the data set on anaesthetized dog [3] (setting [16]), the “Internal carotid artery back pressure: in time” value is reported as 15 min, the Systemic average arterial pressure: in time is 15 min and the “Increase of the extraction of cerebral oxygen” value is “+35%”.

In the case of `COc1cc(/C=C/C(=O)N2CCN(CC(O)COc3ccc(C#N)cc3)CC2)cc(OC)c1OC` (centres unmarked) [760 501], in the data set on anaesthetized dog [2] (2.3 mg/kg i.v. slow perfusion), the “Diminution in consumption of O2: in time” value is 45 min and the “Diminution in the cardiac effort” value is listed as 15 min. The inhibition in vivo at 2.3 mg/kg in the data set on anaesthetized dog [2] (2.3 mg/kg i.v. slow perfusion, read-out: Diminution in consumption of O2) was 75%. In addition, the inhibition in vivo at 2.3 mg/kg in the data set with anaesthetized dog [2] (2.3 mg/kg i.v. slow perfusion, read-out: Diminution in the cardiac effort (IK)) stood at 4%. Moreover, the change in vivo at 5 mg/kg in the data set with anaesthetized dog [1] (setting [4]) is -22%. The change in vivo at 5 mg/kg with anaesthetized dog [1] (setting [5]) came to 61%. In addition, in the data set on anaesthetized dog [1] (setting [6]), the “Average arterial pressure: in time” value is given as 35 min and the “Femoral artery flow: in time” value is listed as 23 min.

Take `COc1cc(/C=C/C(=O)N2CCCN(CC(O)COc3ccccc3)CC2)cc(OC)c1OC` (centres unmarked) [760 388]: the change in vivo at 5 mg/kg in the data set with anaesthetized dog [3] (setting [9]) is -65%. For the same compound, in the data set on anaesthetized dog [3] (setting [10]), the change in vivo at 5 mg/kg was -44%. Besides, the change in vivo at 5 mg/kg in the data set on anaesthetized dog [3] (setting [11]) was 225%. In the data set on anaesthetized dog [3] (setting [12]), the “Internal carotid artery back pressure: in time” value is recorded as 50 min, the Systemic average arterial pressure: in time came out at 50 min and the “Vertebral artery flow: in time” value came to 50 min.
